Consider 16 compounds from patent EP4095134A1, “POLYCYCLIC COMPOUNDS FOR THE TREATMENT OF NEUROLOGICAL INDICATIONS” (UCL Business Ltd, priority 2021, dated 2022).

This assay concerns the target T1, P2Y1 receptor (Homo sapiens, UniProt P47900).
T1 construct: expressed in transfected cells
Nature of the assay: P2Y1 IP1 accumulation HTRF assay, antagonism of agonist MRS2365 in stably transfected cells. It counts as cell-based. The conditions noted are these: 5nM MRS2365, values rounded to nearest whole number. Here is the method:
IC50 values were determined using a cell based assay in stably transfected cells overexpressing the P2Y1 receptor. The assay system is a […] (HTRF) assay measuring accumulation of the intracellular messenger inositol monophosphate (IP1), generated intracellularly following activation of P2Y1. Activity of test compounds was generated by measuring antagonism of the increase in IP1 generated by addition of a selective P2Y1 agonist, MRS2365.
P2Y1 overexpressing cells were maintained in T175 flasks. The day before the assay, these cells were split and 20µl cell suspension transferred to each well of white 384-well assay plates at a cell density of 0.5x10^6 cells/mL. Plates were pulse centrifuged, then incubated overnight at 37°C / 5% CO2 prior to assay.
On day of assay, medium was removed from cells and replaced with stimulation buffer. Compounds were prepared in 100% DMSO for addition to cells using the Tecan D300e digital dispenser; compounds were prepared in cassette heads and added directly to wells in the required concentration range, to give a 10-point concentration response curve from 10µM with semi-log dilutions and a final DMSO concentration of 0.1%. Positive control antagonist curves with standard compounds were included on each plate. Plates were incubated with antagonists for 1 hour prior to addition of 5nM of the agonist MRS2365, dispensed using a Bravo liquid handler. Following agonist addition, plates were incubated for 60 minutes prior to assay. Both incubations were carried out at 37°C / 5% CO2.
For the assay, IP1 accumulation was quantified using the IPOne kit according to manufacturer's instructions. In short, a standard curve was prepared for IP 1 quantification, and cells lysed using kit lysis buffer. Assay reagents were added to the lysates, and incubated for 1 hour at room temperature without spinning or shaking. Plates were analysed on a BMG Pherastar plate reader, and IP1 signal generated in cells interpolated from the standard curve.
For all reported results, N is greater than or equal to 4. An individual N refers to one assay run with a single weighing of compound. A minimum of two assay runs were performed for each of two independent weighings of compound. Results (racemic)

T1 sequence (P47900 whole entry): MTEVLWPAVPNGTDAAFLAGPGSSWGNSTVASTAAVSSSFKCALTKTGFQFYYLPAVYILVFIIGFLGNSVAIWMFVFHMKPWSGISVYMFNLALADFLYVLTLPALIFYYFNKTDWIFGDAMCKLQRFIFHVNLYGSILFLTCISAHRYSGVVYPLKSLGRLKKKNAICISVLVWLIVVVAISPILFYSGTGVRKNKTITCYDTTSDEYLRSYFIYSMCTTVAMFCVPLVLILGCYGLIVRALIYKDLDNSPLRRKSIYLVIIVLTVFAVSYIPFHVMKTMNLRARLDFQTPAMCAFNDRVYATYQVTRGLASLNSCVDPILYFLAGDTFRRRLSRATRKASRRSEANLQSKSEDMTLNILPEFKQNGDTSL

The compound `N#Cc1ccc(NC(=O)Nc2cccnc2Oc2ccccc2C2(C(F)(F)F)CCO2)cc1` (racemic) [S79, 1-(4-cyanophenyl)-3-(2-(2-(2-(trifluoromethyl)oxetan-2-yl)phenoxy)pyridin-3-yl)urea] returned an IC50 (racemic, N >= 4) of 3170 nM. `CN1CC[C@]1(c1ccccc1Oc1ncccc1NC(=O)Nc1ccc(OC(F)(F)F)cc1)C(F)(F)F` (racemic) [S105] came in with a concentration for half-maximal inhibition (IC50) (single enantiomer) of 77 nM. Turning to `Cc1ccc(NC(=O)Nc2ccc(F)cn2)c(Oc2ccc(F)cc2C2(C(F)(F)F)CCO2)n1` (racemic) [S54, 1-(2-(4-fluoro-2-(2-(trifluoromethyl)oxetan-2-yl)phenoxy)-6-methylpyridin-3-yl)-3-(5-fluoropyridin-2-yl)urea], the IC50 (racemic, N >= 4) came out at 549 nM. Take `O=C(Nc1cc(F)c(Cl)cc1F)Nc1cccnc1Oc1ccccc1[C@@]1(C(F)(F)F)CCO1` (single isomer, unassigned) [S100]: the half-inhibitory concentration (IC50) (single enantiomer) was 44 nM. Same read-out and setting: with `Cc1ccc(NC(=O)Nc2ccc(Cl)cc2F)c(Oc2ccccc2[C@]2(C(F)(F)F)CCO2)n1` (racemic) [S109] the figure was 126 nM. Compound `O=C(Nc1ccc(OC(F)(F)F)cc1F)Nc1cccnc1Oc1ccccc1C1(C(F)(F)F)CCO1` (racemic) [S9, 1-(2-fluoro-4-(trifluoromethoxy)phenyl)-3-(2-(2-(2-(trifluoromethyl)oxetan-2-yl)phenoxy)pyridin-3-yl)urea] returned an IC50 (racemic, N >= 4) of 66 nM. Same read-out and setting: as for `Cc1ccc(NC(=O)Nc2ccc(OC3CC(F)(F)C3)cc2)c(Oc2ccccc2C2(C(F)(F)F)CCO2)n1` (racemic) [S15, 1-(4-(3,3-difluorocyclobutoxy)phenyl)-3-(6-methyl-2-(2-(2-(trifluoromethyl)oxetan-2-yl)phenoxy)pyridin-3-yl)urea], the figure is 105 nM; as for `O=C(Nc1ccc(C(F)F)cc1)Nc1cccnc1Oc1ccccc1C1(C(F)(F)F)CCO1` (racemic) [S39, 1-(4-(difluoromethyl)phenyl)-3-(2-(2-(2-(trifluoromethyl)oxetan-2-yl)phenoxy)pyridin-3-yl)urea], 259 nM; as for `O=C(Nc1ccc(C(F)(F)F)cc1)Nc1cccnc1Oc1ccccc1C1(C(F)(F)F)CCO1` (racemic) [S25, 1-(2-(2-(2-(trifluoromethyl)oxetan-2-yl)phenoxy)pyridin-3-yl)-3-(4-(trifluoromethyl)phenyl)urea], 146 nM. Take `CC(C)c1ccc(NC(=O)Nc2cccnc2Oc2ccccc2[C@@]2(C(F)(F)F)CCO2)c(F)c1` [S124]: the IC50 (single enantiomer) is 20 nM. Where the note is “racemic, N >= 4”, `CN1C(=O)CC1(c1ccccc1Oc1ncccc1NC(=O)Nc1ccc(OC(F)(F)F)cc1)C(F)F` (racemic) [S83] returned an IC50 of 4710 nM. Still for that read-out and setting: as for `COc1ccc2nc(Nc3cccnc3Oc3ccc(F)cc3C3(C(F)(F)F)CCO3)[nH]c2n1` (racemic) [S119], the figure is 721 nM. On the same count and under the same terms, as for `O=C(Nc1ccc(F)cc1)Nc1cccnc1Oc1ccccc1C1(C(F)(F)F)CCO1` (racemic) [S53, 1-(4-fluorophenyl)-3-(2-(2-(2-(trifluoromethyl)oxetan-2-yl)phenoxy)pyridin-3-yl)urea], the figure is 522 nM; as for `Cc1ccc(NC(=O)Nc2ccc(OC(F)(F)F)cc2F)c(Oc2ccccc2C2(C(F)(F)F)CCO2)n1` (racemic) [S2, 1-(2-fluoro-4-(trifluoromethoxy)phenyl)-3-(6-methyl-2-(2-(2-(trifluoromethyl)oxetan-2-yl)phenoxy)pyridin-3-yl)urea], 33 nM.

Regarding `O=C(Nc1ccc(S(F)(F)(F)(F)F)cc1)Nc1cccnc1Oc1ccccc1C1(C(F)(F)F)CCO1` (racemic) [S28, 1-(4-(pentafluoro-λ^6-sulfaneyl)phenyl)-3-(2-(2-(2-(trifluoromethyl)oxetan-2-yl)phenoxy)pyridin-3-yl)urea], the IC50 (racemic, N >= 4) is 157 nM.

Regarding `COc1ccc(NC(=O)Nc2cccnc2Oc2ccccc2C2(C(F)(F)F)CCO2)cc1F` (racemic) [S55, 1-(3-fluoro-4-methoxyphenyl)-3-(2-(2-(2-(trifluoromethyl)oxetan-2-yl)phenoxy)pyridin-3-yl)urea], for the setting “racemic, N >= 4”, the half-inhibitory concentration (IC50) amounted to 560 nM.

Broadly, the IC50 is the point on the concentration scale where inhibition reaches its midpoint.
